Activity calls are given as the source filed them. No cut-off for these calls is given here.

Data set [1] deals with SK-BR-3. The experiment in a line: Cytotoxicity in human SK-BR-3 cells assessed as reduction in cell viability at 50 to 500 nM incubated for 72 hrs in absence of 15 mins photoirradiation at 365 nm by WST assay. The conditions noted are these: sk-br-3, 72 h, 0.5 µM, dose 50-500 nM. The format is toxicity, cell-based.
Data set [2] concerns SK-BR-3. Briefly: Cytotoxicity in human SK-BR-3 cells assessed as reduction in cell viability at 50 to 500 nM incubated for 72 hrs in presence of 15 mins photoirradiation at 365 nm by WST assay. Type of data set: functional, cell-based. The conditions noted are these: dose 50-500 nM.

For `CC[C@@]1(OC(=O)CCCCNC(=O)OC(C)c2cc(OC)c(OCCCC(=O)NCCN3C(=O)CC(NCCNC(=O)CCCC[C@@H]4SC[C@H]5NC(=O)N[C@@H]45)C3=O)cc2[N+](=O)[O-])C(=O)OCc2c1cc1n(c2=O)Cc2cc3ccccc3nc2-1` (some centres not stated), the Activity entry in data set [1] was “Non-Toxic”. Further, in data set [2], the outcome was Active.

These data come from ChEMBL document CHEMBL5113425, “Preparation of a multifunctional photoactivated prodrug on a streptavidin scaffold bearing a DNA aptamer” (Bioorg Med Chem Lett, 2022).
